biological target: T1, IDH2 R140Q (Homo sapiens, UniProt P48735, R140Q); experiment: IDH2 R140Q enzymatic assay (cofactor depletion, similar format); assay type: biochemical; conditions: not given
T1 sequence (P48735 40-452 R140Q): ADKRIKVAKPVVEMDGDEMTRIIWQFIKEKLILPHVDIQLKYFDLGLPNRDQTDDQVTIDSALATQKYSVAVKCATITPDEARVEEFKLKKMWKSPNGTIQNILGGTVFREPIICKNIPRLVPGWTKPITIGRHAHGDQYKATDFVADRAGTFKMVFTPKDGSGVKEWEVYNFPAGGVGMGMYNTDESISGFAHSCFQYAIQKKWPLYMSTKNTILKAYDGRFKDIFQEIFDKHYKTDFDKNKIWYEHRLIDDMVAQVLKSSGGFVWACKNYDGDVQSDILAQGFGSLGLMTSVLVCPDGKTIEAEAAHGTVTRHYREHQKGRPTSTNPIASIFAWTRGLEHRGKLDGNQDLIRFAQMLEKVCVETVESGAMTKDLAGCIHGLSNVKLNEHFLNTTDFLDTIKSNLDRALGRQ
Experimental: [The source words this procedure for another variant and says it was used here with some conditions changed.] Compounds are assayed for IDH2 R172K inhibitory activity through a cofactor depletion assay. […] The reaction is terminated by the addition of a second enzyme, diaphorase, and a corresponding substrate, resazurin. Diaphorase reduces resazurin to the highly fluorescent resorufin with the concomitant oxidation of NADPH to NADP, both halting the IDH2 reaction by depleting the available cofactor pool and facilitating quantitation of the amount of cofactor remaining after a specific time period through quantitative production of an easily detected fluorophore.
The test compound is then incubated for one hour at room temperature with the enzyme; before starting the IDH2 reaction with the addition of 10 μl of substrate mix containing 50 μM NADPH and 6.3 mM α-KG in the buffer described above. After a further one hour of incubation at room temperature, the reaction is halted and the remaining NADPH measured through conversion of resazurin to resorufin by the addition of 25 μl Stop Mix (36 μg/ml diaphorase enzyme and 60 μM resazurin; in buffer).

Row | Compound | Enz R140Q
1 | c1ccc(-c2nc(NCC3CNCCO3)nc(Nc3ccncc3)n2)cc1 (stereo not shown) [Compound 234, N^2-(morpholin-2-ylmethyl)-6-phenyl-N^4-(pyridin-4-yl)-1,3,5-triazine-2,4-diamine] | No Fit
2 | CC(O)CNc1nc(Nc2ccncc2)nc(-c2ccccc2)n1 (stereo not shown) [Compound 271, 1-(4-phenyl-6-(pyridin-4-ylamino)-1,3,5-triazin-2-ylamino)propan-2-ol] | No Fit
3 | CC(CO)Nc1nc(Nc2ccncc2)nc(-c2ccccc2)n1 (stereo not shown) [Compound 278, 2-(4-phenyl-6-(pyridin-4-ylamino)-1,3,5-triazin-2-ylamino)propan-1-ol] | No Fit
4 | OC1CCCCC1Nc1nc(Nc2ccncc2)nc(-c2ccccc2)n1 (stereo not shown) [Compound 282, 2-(4-phenyl-6-(pyridin-4-ylamino)-1,3,5-triazin-2-ylamino)cyclohexanol] | No Fit
5 | O[C@H]1CC[C@@H](Nc2nc(Nc3ccncc3)nc(-c3ccccc3)n2)C1 [Compound 283, (1S,3R)-3-(4-phenyl-6-(pyridin-4-ylamino)-1,3,5-triazin-2-ylamino)cyclopentanol] | No Fit

same assay, conditions: read-out: Enz R140Q

Row | Compound | IC50 [nM]
6 | CC(C)Nc1nc(Nc2ccccc2)nc(-c2ccc(C#N)cc2)n1 [Compound 108] | 100 to 1000
7 | CN(C)C(=O)Nc1nc(Nc2ccccc2)nc(-c2ccccc2)n1 [Compound 182, 1,1-dimethyl-3-(4-phenyl-6-(phenylamino)-1,3,5-triazin-2-yl)urea] | 100 to 1000
8 | CCNC(=O)Nc1nc(Nc2ccccc2)nc(-c2ccccc2)n1 [Compound 207, 1-ethyl-3-(4-phenyl-6-(phenylamino)-1,3,5-triazin-2-yl)urea] | 100 to 1000
9 | c1ccc(-c2nc(NCC3CCCO3)nc(Nc3ccncc3)n2)cc1 (stereo not shown) [Compound 222, 6-phenyl-N^2-(pyridin-4-yl)-N^4-((tetrahydrofuran-2-yl)methyl)-1,3,5-triazine-2,4-diamine] | 100 to 1000
10 | CC1(Nc2nc(Nc3ccncc3)nc(-c3ccccc3)n2)COC1 [Compound 251, N^2-(3-methyloxetan-3-yl)-6-phenyl-N^4-(pyridin-4-yl)-1,3,5-triazine-2,4-diamine] | 100 to 1000
11 | OC1CCC(Nc2nc(Nc3ccncc3)nc(-c3ccccc3)n2)CC1 (stereo not shown) [Compound 256, 4-(4-phenyl-6-(pyridin-4-ylamino)-1,3,5-triazin-2-ylamino)cyclohexanol] | 1000 to 10000
12 | c1ccc(-c2nc(Nc3ccncc3)nc(NC3CCOCC3)n2)cc1 [Compound 258, 6-phenyl-N^2-(pyridin-4-yl)-N^4-(tetrahydro-2H-pyran-4-yl)-1,3,5-triazine-2,4-diamine] | 1000 to 10000
13 | c1ccc(-c2nc(NCC3CCO3)nc(Nc3ccncc3)n2)cc1 (stereo not shown) [Compound 264, N^2-(oxetan-2-ylmethyl)-6-phenyl-N^4-(pyridin-4-yl)-1,3,5-triazine-2,4-diamine] | 1000 to 10000
14 | CC(C)(O)CNc1nc(Nc2ccncc2)nc(-c2ccccc2)n1 [Compound 265, 2-methyl-1-(4-phenyl-6-(pyridin-4-ylamino)-1,3,5-triazin-2-ylamino)propan-2-ol] | 100 to 1000
15 | COCC(C)Nc1nc(Nc2ccncc2)nc(-c2ccccc2)n1 (stereo not shown) [Compound 272, N^2-(1-methoxypropan-2-yl)-6-phenyl-N^4-(pyridin-4-yl)-1,3,5-triazine-2,4-diamine] | 100 to 1000
16 | c1ccc(-c2nc(Nc3ccncc3)nc(NC3CCCOC3)n2)cc1 (stereo not shown) [Compound 273, 6-phenyl-N^2-(pyridin-4-yl)-N^4-(tetrahydro-2H-pyran-3-yl)-1,3,5-triazine-2,4-diamine] | > 10000
17 | COC(C)CNc1nc(Nc2ccncc2)nc(-c2ccccc2)n1 (stereo not shown) [Compound 274, N^2-(2-methoxypropyl)-6-phenyl-N^4-(pyridin-4-yl)-1,3,5-triazine-2,4-diamine] | > 10000
18 | COCCCNc1nc(Nc2ccncc2)nc(-c2ccccc2)n1 [Compound 275, N^2-(3-methoxypropyl)-6-phenyl-N^4-(pyridin-4-yl)-1,3,5-triazine-2,4-diamine] | 100 to 1000
19 | O=C1CC(Nc2nc(Nc3ccncc3)nc(-c3ccccc3)n2)C1 [Compound 276, 3-(4-phenyl-6-(pyridin-4-ylamino)-1,3,5-triazin-2-ylamino)cyclobutanone] | 100 to 1000
20 | CC[S+]([O-])c1cccc(Nc2nc(NC(C)C)nc(-c3ccccc3)n2)c1 (stereo not shown) [Compound 277, N^2-(3-(ethylsulfinyl)phenyl)-N^4-isopropyl-6-phenyl-1,3,5-triazine-2,4-diamine] | < 100
21 | CC(C)C(CO)Nc1nc(Nc2ccncc2)nc(-c2ccccc2)n1 (stereo not shown) [Compound 279, 3-methyl-2-(4-phenyl-6-(pyridin-4-ylamino)-1,3,5-triazin-2-ylamino)butan-1-ol] | > 10000
22 | c1ccc(-c2nc(Nc3ccncc3)nc(NC3CCCCC3)n2)cc1 [Compound 280, N^2-cyclohexyl-6-phenyl-N^4-(pyridin-4-yl)-1,3,5-triazine-2,4-diamine] | > 10000
23 | Cc1ccc(Nc2nc(NC(C)C)nc(-c3ccccc3)n2)cn1 [Compound 281, N^2-isopropyl-N^4-(6-methylpyridin-3-yl)-6-phenyl-1,3,5-triazine-2,4-diamine] | < 100
24 | N#CC1(Nc2nc(Nc3ccncc3)nc(-c3ccccc3)n2)CC1 [Compound 285, 1-(4-phenyl-6-(pyridin-4-ylamino)-1,3,5-triazin-2-ylamino)cyclopropanecarbonitrile] | 1000 to 10000
25 | CC(C)(C)C(CO)Nc1nc(Nc2ccncc2)nc(-c2ccccc2)n1 (stereo not shown) [Compound 286, 3,3-dimethyl-2-(4-phenyl-6-(pyridin-4-ylamino)-1,3,5-triazin-2-ylamino)butan-1-ol] | > 10000
26 | c1ccc(-c2nc(Nc3ccncc3)nc(NC3CCCC3)n2)cc1 [Compound 287, N^2-cyclopentyl-6-phenyl-N^4-(pyridin-4-yl)-1,3,5-triazine-2,4-diamine] | 100 to 1000
27 | O=C(Nc1nc(Nc2ccccc2)nc(-c2ccccc2)n1)c1ccn[nH]1 [Compound 347, N-(4-phenyl-6-(phenylamino)-1,3,5-triazin-2-yl)-1H-pyrazole-5-carboxamide] | 100 to 1000
28 | O=C(CO)Nc1nc(Nc2ccccc2)nc(-c2ccccc2)n1 [Compound 348, 2-hydroxy-N-(4-phenyl-6-(phenylamino)-1,3,5-triazin-2-yl)acetamide] | > 10000
29 | CC#Cc1cccc(-c2nc(Nc3cccc(S(C)(=O)=O)c3)nc(NC(C)C)n2)n1 [Compound 365, N^2-isopropyl-N^4-(3-(methylsulfonyl)phenyl)-6-(6-(prop-1-ynyl)pyridin-2-yl)-1,3,5-triazine-2,4-diamine] | 1000 to 10000
30 | O=C(Nc1nc(Nc2ccccc2)nc(-c2ccccc2)n1)C1(O)CC1 [Compound 412, 1-hydroxy-N-(4-phenyl-6-(phenylamino)-1,3,5-triazin-2-yl)cyclopropanecarboxamide] | 1000 to 10000
31 | O=C1CCC(C(=O)Nc2nc(Nc3ccccc3)nc(-c3ccccc3)n2)N1 (stereo not shown) [Compound 413, 5-oxo-N-(4-phenyl-6-(phenylamino)-1,3,5-triazin-2-yl)pyrrolidine-2-carboxamide] | > 10000
32 | O=C(Nc1nc(Nc2ccccc2)nc(-c2ccccc2)n1)C1CCOC1 (stereo not shown) [Compound 415, N-(4-phenyl-6-(phenylamino)-1,3,5-triazin-2-yl)tetrahydrofuran-3-carboxamide] | > 10000

system: U87MG pLVX-IDH2 R140Q-neo cells; experiment: U87MG pLVX-IDH2 R140Q-neo cell based assay, 2-HG in media by LC-MS at 48 hours; conditions: Homo sapiens, U-87 MG
Experimental: U87MG pLVX-IDH2 R140Q-neo cells are grown in T125 flasks in DMEM containing 10% FBS, 1× penicillin/streptomycin and 500 μg/mL G418. They are harvested by trypsin and seeded into 96 well white bottom plates at a density of 5000 cell/well in 100 μl/well in DMEM with 10% FBS. No cells are plated in columns 1 and 12. Cells are incubated overnight at 37° C. in 5% CO2. The next day compounds are made up at 2× concentration and 100 ul are added to each cell well. The final concentration of DMSO is 0.2% and the DMSO control wells are plated in row G. The plates are then placed in the incubator for 48 hours. At 48 hours, 100 ul of media is removed from each well and analyzed by LC-MS for 2-HG concentrations. The cell plate is placed back in the incubator for another 24 hours. At 72 hours post compound addition, 10 mL/plate of Promega Cell Titer Glo reagent is thawed and mixed. The cell plate is removed from the incubator and allowed to equilibrate to room temperature. Then 100 ul of reagent is added to each well of media. The cell plate is then placed on an orbital shaker for 10 minutes and then allowed to sit at room temperature for 20 minutes. The plate is then read for luminescence with an integration time of 500 ms to determine compound effects on growth inhibition.

Row | Compound | IC50 [nM]
33 | CC(C)(O)CNc1nc(Nc2ccncc2)nc(-c2ccccc2)n1 [Compound 265, 2-methyl-1-(4-phenyl-6-(pyridin-4-ylamino)-1,3,5-triazin-2-ylamino)propan-2-ol] | 1000 to 10000
34 | COCC(C)Nc1nc(Nc2ccncc2)nc(-c2ccccc2)n1 (stereo not shown) [Compound 272, N^2-(1-methoxypropan-2-yl)-6-phenyl-N^4-(pyridin-4-yl)-1,3,5-triazine-2,4-diamine] | 100 to 1000
35 | COCCCNc1nc(Nc2ccncc2)nc(-c2ccccc2)n1 [Compound 275, N^2-(3-methoxypropyl)-6-phenyl-N^4-(pyridin-4-yl)-1,3,5-triazine-2,4-diamine] | 100 to 1000
36 | CC[S+]([O-])c1cccc(Nc2nc(NC(C)C)nc(-c3ccccc3)n2)c1 (stereo not shown) [Compound 277, N^2-(3-(ethylsulfinyl)phenyl)-N^4-isopropyl-6-phenyl-1,3,5-triazine-2,4-diamine] | 100 to 1000
37 | Cc1ccc(Nc2nc(NC(C)C)nc(-c3ccccc3)n2)cn1 [Compound 281, N^2-isopropyl-N^4-(6-methylpyridin-3-yl)-6-phenyl-1,3,5-triazine-2,4-diamine] | 100 to 1000

From patent US9512107B2, “Therapeutically active compositions and their methods of use” (Agios Pharmaceuticals, Inc., priority 2012, dated 2016)
